Measurements published in patent publication US6172112A, “Retinoids and use thereof” (priority 1999, dated 2001).
Entries after “also recorded” stand apart in the source; their conditions may differ. Read-outs that look alike come from different tables or passages of the source.

Tests used:
[1] = test system: JMML cells; assay: inhibition of JMML spontaneous CFU-GM colony formation; conditions: Homo sapiens
Protocol: Mononuclear cells were separated by density gradient centrifugation, washed, and frozen in aliquots. […] No growth factors or other exogenous stimuli were added to the cultures. UAB retinoids and retinoic acid isomers were dissolved in either 100% ethanol or DMSO. Appropriate dilutions were made, and controls using the respective ethanol or DMSO concentration were set up in parallel. Varying doses of retinoids were added only once, 24 hours after initiation of the soft agar assays, by pipetting the retinoid solution on top of the soft agar and allowing the solution to enter the agar and interact with the cells by diffusion. The cultures were incubated for 14 days at 37° C. in a humidified atmosphere with 5% CO2.

[2] = test system: NB4 cells; assay: retinoid induction of differentiation of NB4 cells (NBT); assay type: cell-based, Human; conditions: for EC50: NB-4, 96 h, read-out: ED50 (nM) NB4
Protocol: NB4 cells were obtained from Dr. Waxman after he received them from Dr. M. Lanotte. […] The cell were grown at 37° C. in a humidified atmosphere of 5% CO2 in air. Cell density was estimated on an electronic particle counter (Coulter electronic, Hialeah, Fla.) and cell viability with trypan bleu dye exclusion.
(§1) Human leukemia cell line HL-60 and NB4 were used for measuring the ability of retinoids to induce terminal differentiation. Both cell lines are predominantly promyelocytes and are induced by retinoic acid to mature to cells with many characteristics of mature granulocytes. The induction of this differentiation is the basis for assaying one of the biological activities of retinoic acid analogues. For the differentiation assay, HL-60 or NB4 cells were grown in nutrient medium with fetal bovine serum as detailed by Breitman (15).
(§2) The percentage of cells that gained this marker was measured microscopically. The percentage of positive cells was then plotted as a function of the retinoid concentration to determine ED50 and ED30 values used in the formation of isoboles.

[3] = test system: mouse skin papilloma; conditions: 45.9 nmol dose; ref (8); cited from earlier work
[4] = biological target: T1, RARβ (Homo sapiens, UniProt P10826); assay: nuclear receptor radiolabeled competition binding, RARβ
T1 construct: expressed in transfected cells; host or cells: CV-1 cells
T1 sequence (P10826 1-455): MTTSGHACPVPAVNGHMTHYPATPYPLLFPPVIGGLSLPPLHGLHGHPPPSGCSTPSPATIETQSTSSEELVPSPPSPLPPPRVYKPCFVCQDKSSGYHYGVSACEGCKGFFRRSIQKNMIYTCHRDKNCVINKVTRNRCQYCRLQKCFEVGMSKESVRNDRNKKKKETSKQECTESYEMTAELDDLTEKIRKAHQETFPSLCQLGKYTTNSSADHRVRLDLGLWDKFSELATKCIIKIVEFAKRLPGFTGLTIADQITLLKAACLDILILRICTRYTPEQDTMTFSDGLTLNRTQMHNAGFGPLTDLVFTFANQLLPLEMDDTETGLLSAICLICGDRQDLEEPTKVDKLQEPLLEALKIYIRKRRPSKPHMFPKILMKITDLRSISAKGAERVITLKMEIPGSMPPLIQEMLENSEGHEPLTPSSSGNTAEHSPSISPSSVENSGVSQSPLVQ
Protocol: (§3) For active retinoids, IC50 values were determined by titration with varying concentrations of UAB retinoids.

[5] = biological target: T2, RARα (Homo sapiens, UniProt P10276); assay: cell-based
T2 sequence (P10276 1-462): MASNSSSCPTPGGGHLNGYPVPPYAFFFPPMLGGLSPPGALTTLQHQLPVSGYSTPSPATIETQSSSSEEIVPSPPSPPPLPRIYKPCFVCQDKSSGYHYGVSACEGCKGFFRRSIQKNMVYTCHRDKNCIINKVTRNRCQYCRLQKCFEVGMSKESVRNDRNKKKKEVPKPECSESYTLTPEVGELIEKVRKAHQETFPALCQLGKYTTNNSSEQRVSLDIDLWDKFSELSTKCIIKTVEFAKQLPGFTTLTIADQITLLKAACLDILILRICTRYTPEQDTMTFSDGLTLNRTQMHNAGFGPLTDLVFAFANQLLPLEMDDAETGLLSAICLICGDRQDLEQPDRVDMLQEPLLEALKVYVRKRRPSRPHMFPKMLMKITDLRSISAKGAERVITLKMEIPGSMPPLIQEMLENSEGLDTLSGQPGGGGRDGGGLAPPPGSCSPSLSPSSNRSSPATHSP
Protocol: (§4) These assays were performed in CV-1 cells with the RAR or RXR gene and the chloramphenicol acetyltransferase (CAT) reporter gene containing TREpal with a thymidine kinase promoter [(TREpal)2 -tk-CAT]. Twenty-four hours after transfection, cells were treated with a single dose of retinoid and the cell extracts were assayed for b-galactosidase and CAT activity. The antagonistic effects of UAB30 retinoids on the transcription of RAR-α were also determined in CV-1 cells. The methods are nearly identical to those used to perform transcriptional assays. These studies utilized the CAT reporter gene [(TREpal)2 -tk-CAT]. […] After 24 hours, cells were harvested and the transcriptional effects were measured in relative CAT activity, after correction with β-galactosidase activity for transfection efficiency. […] Experiments were performed in triplicate and the data were averaged.
(§5) UAB30 isomers were evaluated in assays which measures their functional activity within cells to induce RARα-, RARβ-, and RARγ-mediated transcriptional activity. CV-1 cells were transiently transfected with DNA plasmid from the appropriate RAR subtype and (TREpal)2 -tk-CAT (9, 19).

[6] = biological target: T3, RARγ (Homo sapiens, UniProt P13631); assay: RARγ-mediated transcriptional activation in CV-1 cells; assay type: cell-based
T3 sequence (P13631 1-454): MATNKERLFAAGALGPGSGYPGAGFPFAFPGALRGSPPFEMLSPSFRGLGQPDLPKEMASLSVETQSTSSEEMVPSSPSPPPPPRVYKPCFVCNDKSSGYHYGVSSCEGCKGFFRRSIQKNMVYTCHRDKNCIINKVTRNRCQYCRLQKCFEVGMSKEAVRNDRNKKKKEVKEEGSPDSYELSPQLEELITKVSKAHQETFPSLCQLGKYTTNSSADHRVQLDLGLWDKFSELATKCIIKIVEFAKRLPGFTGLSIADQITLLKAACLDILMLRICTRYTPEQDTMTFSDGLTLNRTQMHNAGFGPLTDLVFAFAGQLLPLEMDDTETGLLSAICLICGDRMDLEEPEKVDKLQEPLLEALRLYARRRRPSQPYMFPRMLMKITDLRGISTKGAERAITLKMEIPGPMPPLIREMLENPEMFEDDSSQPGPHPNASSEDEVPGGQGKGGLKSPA
Protocol: as §4, §5

[7] = test system: mouse skin papilloma; assay: mouse skin antipapilloma assay; conditions: 45.9 nmol dose
Protocol: The mouse skin antipapilloma assay measured the ED50 values for retinoid tumor inhibition on the dorsal skin of mice. The inhibition of mouse skin papilloma by retinoids was performed according to a modification of the procedure developed by Verma and Boutwell (14) as reported previously by Muccio et al. (8).
The UAB30 retinoids were evaluated next for their activity in preventing the chemical induction of papillomas on mouse skin (14).

[8] = biological target: T1, RARβ; assay: RARβ-mediated transcriptional activation in CV-1 cells; assay type: cell-based
Protocol: as §4, §5

[9] = biological target: T2, RARα; assay: nuclear receptor radiolabeled competition binding, RARα
Protocol: as §3

[10] = biological target: T3, RARγ; assay: nuclear receptor radiolabeled competition binding, RARγ
Protocol: as §3

[11] = biological target: T4, RARα/RXRα (Homo sapiens, UniProt P10276+P19793); assay: cell-based
T4 sequence (P10276 1-462): T2 sequence (P10276 1-462)
T4 sequence (P19793 1-462): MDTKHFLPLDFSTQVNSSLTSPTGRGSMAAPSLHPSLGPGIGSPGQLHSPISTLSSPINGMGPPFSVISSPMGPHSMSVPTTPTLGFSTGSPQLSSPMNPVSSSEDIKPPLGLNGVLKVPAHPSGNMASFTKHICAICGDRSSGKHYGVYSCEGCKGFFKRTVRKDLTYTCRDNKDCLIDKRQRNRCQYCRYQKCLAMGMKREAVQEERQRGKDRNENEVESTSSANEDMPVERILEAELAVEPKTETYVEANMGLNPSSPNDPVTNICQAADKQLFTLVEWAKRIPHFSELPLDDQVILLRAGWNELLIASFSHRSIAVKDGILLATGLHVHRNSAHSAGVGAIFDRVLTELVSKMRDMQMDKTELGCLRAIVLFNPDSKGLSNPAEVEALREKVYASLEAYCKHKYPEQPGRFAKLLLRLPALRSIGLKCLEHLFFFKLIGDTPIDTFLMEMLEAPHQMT
Protocol: as §4

[12] = test system: HL-60 cells; assay: retinoid induction of differentiation of HL-60 cells (NBT); assay type: cell-based; conditions: Homo sapiens, HL-60, 96 h; 4-day induction of differentiation; read-out: ED50 (nM) HL-60
Protocol: as §1, §2

[13] = test system: juvenile myelomonocytic leukemia (JMML); conditions: children with JMML; cited from earlier work
[14] = biological target: T3, RARγ; conditions: taken from Alam et al (9); cited from earlier work
[15] = biological target: T5, RXRα (Homo sapiens, UniProt P19793); assay: RXRα homodimer-mediated transcriptional activation in CV-1 cells; assay type: cell-based
Protocol: as §4

[16] = biological target: T2, RARα; conditions: taken from Alam et al (9); cited from earlier work
[17] = biological target: T1, RARβ; conditions: taken from Alam et al (9); cited from earlier work
[18] = biological target: T5, RXRα; conditions: taken from Alam et al (9); cited from earlier work
[19] = test system: RARs; assay: binding to RARs (subtypes stated together in text)
Protocol: as §3

[20] = read-out: normalized percent inhibition of CFU-GM colony growth, patient J83 (%), 10^-6 M
[21] = read-out: normalized percent inhibition of CFU-GM colony growth, patient J83 (%), 10^-7 M
[22] = read-out: normalized percent inhibition of CFU-GM colony growth, patient J84 (%), 10^-6 M
[23] = read-out: normalized percent inhibition of CFU-GM colony growth, patient J84 (%)
[24] = read-out: normalized percent inhibition of CFU-GM colony growth, patient J83 (%)

CC1=C(/C=C/C(C)=C\C=C\C(C)=C\C(=O)O)C(C)(C)CCC1 [(9Z)-RA, 9-cis-retinoic acid, reference compound]
inhibition at 0.1 µM ([1]; read-out: normalized percent inhibition of CFU-GM colony growth, patient J43 (%), 10^-7 M): 98%
inhibition at 1 µM [1, 20]: 82%
inhibition at 0.1 µM [1, 21]: 72%
inhibition at 1 µM [1, 22]: 95%
NB4 cell differentiation ([2]; retinoid alone): comparable to that of ATRA
prevention of papilloma (tumor) formation [3]: 95%

CCC1=C(C(C)C)/C(=C/C(C)=C\C=C\C(C)=C\C(=O)O)CCC1 [(9Z)-UAB8]
IC50 [4]: > 1000 nM
EC50 [5]: > 1 µM
EC50 [6]: 190 nM
EC30 ([2]; Homo sapiens, NB-4, 72 h, retinoid alone, 3 days, read-out: ED30 NB4 cell differentiation): > 3000 µM
prevention of papilloma (tumor) formation [7]: 54%
EC50 [8]: > 2000 nM
IC50 [9]: > 1000 nM
IC50 [10]: > 1000 nM
EC50 [11]: > 2 µM

CCC1=C(C(C)C)/C(=C/C(C)=C\C=C\C(C)=C/C(=O)O)CCC1 [(9Z, 13Z)-UAB8]
EC50 ([2]; Homo sapiens, 4-day induction of differentiation): > 10000 nM
EC50 [12]: > 10000 nM

CC1=C(/C=C/C(C)=C/C=C/C(C)=C\C(=O)O)C(C)(C)CCC1 [(13Z)-RA, reference compound]
inhibition at 1 µM ([1]; read-out: normalized percent inhibition of CFU-GM colony growth, patient J43 (%), 10^-6 M): 109%
inhibition at 1 µM [1, 20]: 94%
inhibition at 0.1 µM [1, 21]: 86%
inhibition at 1 µM [1, 22]: 87%
share of children in whom excessive myeloproliferation is controlled [13]: up to 50%

CCC1=C(C(C)C)/C(=C/C(C)=C/C=C/C(C)=C\C(=O)O)CCC1 [(13Z)-UAB8]
inhibition at 1 µM ([1]; read-out: normalized percent inhibition of CFU-GM colony growth, patient J43 (%)): 80%
inhibition at 0.01 µM [1, 23]: 0%
inhibition at 0.1 µM [1, 23]: 18%
IC50 [14]: 708 nM
EC50 [5]: 0.051 µM
EC50 [15]: > 2 µM
EC50 [6]: 42 nM
IC50 [16]: 900 nM
IC50 [17]: 371 nM
EC50 [12]: > 10000 nM
IC50 [18]: > 1000 nM
EC50 [11]: 0.45 µM

CC(=C/C(=O)O)/C=C/C=C(C)/C=C1\CCCc2ccccc21 [(13Z)-UAB30, (2E,4E,6E,8E)-8-(3',4'-Dihydro-1'(2'H)-naphthalen-1'-ylidene)3,7-dimethyl-2,4,6-octatrienoic acid]
inhibition at 0.1 µM [1, 24]: 82%
inhibition at 1 µM [1, 24]: 88%
inhibition at 0.01 µM [1, 23]: 25%
inhibition at 0.1 µM [1, 23]: 72%
inhibition at 1 µM [1, 23]: 80%
EC50 ([2]; Homo sapiens): > 10000 nM
EC50 [12]: > 10000 nM
binding to the RAR subtypes [19]: ineffective binder

CC(=C\C=C\C(C)=C\C(=O)O)/C=C1\CCCc2ccccc21 [(all-E)-UAB30, (2E,4E,6E,8E)-8-(3',4'-Dihydro-1'(2'H)-naphthalen-1'-ylidene)3,7-dimethyl-2,4,6-octatrienoic acid]
inhibition at 0.1 µM [1, 24]: 68%
inhibition at 1 µM [1, 24]: 72%
inhibition at 0.01 µM [1, 23]: 28%
inhibition at 0.1 µM [1, 23]: 48%
inhibition at 1 µM [1, 23]: 57%
EC50 ([2]; Homo sapiens): > 10000 nM
dose up to which not active in NB4 cell differentiation ([2]; retinoid alone, 3 days): > 40 mM
NB4 cell differentiation ([2]; retinoid alone, listed as all-trans-UAB30): inactive in NB4 cell differentiation; also recorded: not induce differentiation of NB4 cells
prevention of papilloma (tumor) formation [7]: 59%
EC50 [12]: > 10000 nM
